One experiment concerns C57BL/6 mice. As to the kind of experiment: In vivo expression level of Luciferase-mRNA delivered by intravenous injection (bioluminescence imaging). Conditions: mRNA-loaded nanoparticles, compounds of Example 1; intravenous (tail vein), 5 μg Luciferase-mRNA, 6 hours. The protocol: Luciferase-mRNA was used as an mRNA model; and the cationic lipid analogues of Examples 1-5 were used to prepare drug-loaded nanoparticles according to the method of Example 6.
200 μL of nanoparticles containing 5 μg Luciferase-mRNA or the drug-loaded nanoparticles prepared above were injected into tail veins of 6-8 week-old C57BL/6 mice, and 200 μL of 1×PBS solution containing 3 mg D-Luciferin potassium salt was intraperitoneally injected into the mice 6 hours later. After waiting for 10 minutes, an in vivo expression level of the mRNA was evaluated by bioluminescence imaging.
Regarding `CCCCC/C=C\C/C=C\CCCCCCCC(=O)N(CCCN(C)C)C(C(=O)NCCCCCCCCCCCCCC)C(CC)CCCC` (stereo not shown) [A4I10R2C18-2], the “Fluorescence intensity of liver” value came out at 1.15E+06.

`CCCCC/C=C\C/C=C\CCCCCCCC(=O)N(CCCN(C)C)C(C(=O)NCCCCCCCCCCCCCC)C(CC)CCCC` (stereo not shown) [A4I14R2C18-2]: the “Fluorescence intensity of liver” value was 9.02E+05.

Consider `CC/C=C\C/C=C\C/C=C\CCCCCCCC(=O)N(CCN(C)C)C(C(=O)NCCCCCCCCCCCCCCCCCC)C(CC)CCCC` (stereo not shown) [A4I18R1C18-3], for which the “Fluorescence intensity of liver” value amounted to 3.88E+06.

Regarding `CCCCCCCCCCCCCCCCCCNC(=O)C(C(CC)CCCC)N(CCN(C)C)C(=O)CCCCCCCCCCCCCCCCC` (stereo not shown) [A4I18R1C18], the “Fluorescence intensity of liver” value is reported as 3.65E+05.

Take `CCCCCCCCCCCCC#CC#CCCCCCCCCC(=O)N(CCN(C)C)C(C(=O)NCCCCCCCCCCCCCCCCCC)C(CC)CCCC` (stereo not shown) [A4I18R1C23]: the “Fluorescence intensity of liver” value worked out at 1.78E+06.

In turn, `CC/C=C\C/C=C\C/C=C\CCCCCCCC(=O)N(CCCN(C)C)C(C(=O)NCCCCCCCCCCCCCCCCCC)C(CC)CCCC` (stereo not shown) [A4I18R2C18-3] had a Bioluminescence intensity of 1.36E+07.

`CCCCCCCCCCCCC#CC#CCCCCCCCCC(=O)N(CCCN(C)C)C(C(=O)NCCCCCCCCCCCCCCCCCC)C(CC)CCCC` (stereo not shown) [A4I18R2C23] gave a Bioluminescence intensity of 1.40E+07.

Consider `CCCCCCCCCCCCC#CC#CCCCCCCCCC(=O)N(CCCN(CC)CC)C(C(=O)NCCCCCCCCCCCCCCCCCC)C(CC)CCCC` (stereo not shown) [A4I18R3C18-3], for which the Bioluminescence intensity came to 1.32E+07.

For the compound `CCCCCCCCCCCCCCCCCCNC(=O)C(C(CC)CCCC)N(CCCN(CC)CC)C(=O)CCCCCCCCCCCCCCCCC` (stereo not shown) [A4I18R3C18], the “Fluorescence intensity of liver” value turned out to be 1.69E+06.

As to `CCCCCCCCCCCCC#CC#CCCCCCCCCC(=O)N(CCCN(CC)CC)C(C(=O)NCCCCCCCCCCCCCCCCCC)C(CC)CCCC` (stereo not shown) [A4I18R3C23], the “Fluorescence intensity of liver” value amounted to 7.81E+06.

`CCCCC/C=C\C/C=C\CCCCCCCC(=O)N(CCN1CCOCC1)C(C(=O)NCCCCCCCCCCCCCCCCCC)C(CC)CCCC` (stereo not shown) [A4I18R4C18-2]: the “Fluorescence intensity of liver” value was 1.25E+04.

For the compound `CCCCC/C=C\C/C=C\CCCCCCCC(=O)N(CCN(C)CC)C(C(=O)NCCCCCCCCCCCCCCCCCC)C(CC)CCCC` (stereo not shown) [A4I18R6C18-2], the “Fluorescence intensity of liver” value amounted to 3.64E+04.

With `CCCCC/C=C\C/C=C\CCCCCCCC(=O)N(CCCN(C)c1ccccc1)C(CCCCC)C(=O)NCCCCCCCCCCCCCCCCCC` (stereo not shown) [A4I18R7C18-2], the “Fluorescence intensity of liver” value was determined as 5.22E+03.

In the case of `CCCCC/C=C\C/C=C\CCCCCCCC(=O)N(CCN(CC)CC)C(C(=O)NCCCCCCCCCCCCCCCCCC)C(CC)CCCC` (stereo not shown) [A4I18R8C18-2], the “Fluorescence intensity of liver” value worked out at 2.48E+04.

Consider `CCCCC/C=C\C/C=C\CCCCCCCC(=O)N(CCCN1CCN(C)CC1)C(CCCCC)C(=O)NCCCCCCCCCCCCCCCCCC` (stereo not shown) [A4I18R9C18-2], for which the “Fluorescence intensity of liver” value is 2.55E+03.

`CCCCC/C=C\C/C=C\CCCCCCCC(=O)N(CCN1CCCC1)C(CCCCC)C(=O)NCCCCCCCCCCCCCCCCCC` (stereo not shown) [A4I18R10C18-2]: the “Fluorescence intensity of liver” value worked out at 7.89E+05.

In the case of `CCCCC/C=C\C/C=C\CCCCCCCC(=O)N(CCC1CCCN1C)C(CCCCC)C(=O)NCCCCCCCCCCCCCCCCCC` (stereo not shown) [A4I18R11C18-2], the “Fluorescence intensity of liver” value is 1.02E+06.

Consider `CCCCC/C=C\C/C=C\CCCCCCCC(=O)N(CCCN(C)C)C(C(=O)NCCCCCCCCCCCCCCCCCC)C(C)CCC=C(C)C` (stereo not shown) [A5I18R2C18-2], for which the “Fluorescence intensity of liver” value was 8.72E+05.

Still in this experiment, the particulars now being: mRNA-loaded nanoparticles, compounds of Example 2; intravenous (tail vein), 5 μg Luciferase-mRNA, 6 hours.
In the case of `CCCCC/C=C\C/C=C\CCCCCCCC(=O)N(CCN1CCCCCC1)C(C(=O)NCCN(C)CCNC(=O)C(C(CC)CCCC)N(CCN1CCCCCC1)C(=O)CCCCCCC/C=C\C/C=C\CCCCC)C(CC)CCCC` (stereo not shown) [A4I4R13C18-2], the “Fluorescence intensity of spleen” value amounted to 1.19E+04.

On to `CCCCCCCCCCCCCCCCCC(=O)N(CCN1CCCCCC1)C(C(=O)NCCN(C)CCNC(=O)C(C(CC)CCCC)N(CCN1CCCCCC1)C(=O)CCCCCCCCCCCCCCCCC)C(CC)CCCC` (stereo not shown) [A4I4R13C18], for which the “Fluorescence intensity of spleen” value turned out to be 2.79E+03.

As to `CCCCCCCC/C=C\CCCCCCCC(=O)N(CCC)C(C(=O)NCCN(C)CCNC(=O)C(C(CC)CCCC)N(CCC)C(=O)CCCCCCC/C=C\CCCCCCCC)C(CC)CCCC` (stereo not shown) [A4I4R21C18-1], the “Fluorescence intensity of spleen” value stood at 3.02E+04.

Consider `CCCCC/C=C\C/C=C\CCCCCCCC(=O)N(CCC)C(C(=O)NCCN(C)CCNC(=O)C(C(CC)CCCC)N(CCC)C(=O)CCCCCCC/C=C\C/C=C\CCCCC)C(CC)CCCC` (stereo not shown) [A4I4R21C18-2], for which the “Fluorescence intensity of spleen” value was determined as 1.91E+04.

`CCCCCCCCCCCCCCCCCC(=O)N(CCC)C(C(=O)NCCN(C)CCNC(=O)C(C(CC)CCCC)N(CCC)C(=O)CCCCCCCCCCCCCCCCC)C(CC)CCCC` (stereo not shown) [A4I4R21C18]: the “Fluorescence intensity of spleen” value amounted to 2.09E+04.

Turning to `CCCCCCCC/C=C\CCCCCCCC(=O)N(CCOC)C(C(=O)NCCN(C)CCNC(=O)C(C(CC)CCCC)N(CCOC)C(=O)CCCCCCC/C=C\CCCCCCCC)C(CC)CCCC` (stereo not shown) [A4I4R23C18-1], the “Fluorescence intensity of spleen” value amounted to 6.08E+04.

In turn, `CCCCCCCC/C=C\CCCCCCCC(=O)N(CCCN(C)C)C(C(=O)NCCN(C)CCNC(=O)C(C1CC1)N(CCCN(C)C)C(=O)CCCCCCC/C=C\CCCCCCCC)C1CC1` (stereo not shown) [A21I4R2C18-1] registered a Bioluminescence intensity of 8.38E+02.

As for `CCCCC/C=C\C/C=C\CCCCCCCC(=O)N(CCCN(C)C)C(C(=O)NCCN(C)CCNC(=O)C(C1CC1)N(CCCN(C)C)C(=O)CCCCCCC/C=C\C/C=C\CCCCC)C1CC1` (stereo not shown) [A21I4R2C18-2], the “Fluorescence intensity of spleen” value is listed as 1.83E+03.

In the case of `CCCCCCCCCCCCCCCCCC(=O)N(CCCN(C)C)C(C(=O)NCCN(C)CCNC(=O)C(C1CC1)N(CCCN(C)C)C(=O)CCCCCCCCCCCCCCCCC)C1CC1` (stereo not shown) [A21I4R2C18], the “Fluorescence intensity of spleen” value was found to be 1.04E+03.

In turn, `CCCCCCCC/C=C\CCCCCCCC(=O)N(CCN1CCCCCC1)C(C(=O)NCCN(C)CCNC(=O)C(C1CC1)N(CCN1CCCCCC1)C(=O)CCCCCCC/C=C\CCCCCCCC)C1CC1` (stereo not shown) [A21I4R13C18-1] had a Bioluminescence intensity of 9.59E+02.

In turn, `CCCCC/C=C\C/C=C\CCCCCCCC(=O)N(CCN1CCCCCC1)C(C(=O)NCCN(C)CCNC(=O)C(C1CC1)N(CCN1CCCCCC1)C(=O)CCCCCCC/C=C\C/C=C\CCCCC)C1CC1` (stereo not shown) [A21I4R13C18-2] showed a Bioluminescence intensity of 8.67E+02.

`CCCCCCCCCCCCCCCCCC(=O)N(CCN1CCCCCC1)C(C(=O)NCCN(C)CCNC(=O)C(C1CC1)N(CCN1CCCCCC1)C(=O)CCCCCCCCCCCCCCCCC)C1CC1` (stereo not shown) [A21I4R13C18]: the “Fluorescence intensity of spleen” value worked out at 1.12E+03.

For the compound `CCCCCCCC/C=C\CCCCCCCC(=O)N(CCC)C(C(=O)NCCN(C)CCNC(=O)C(C1CC1)N(CCC)C(=O)CCCCCCC/C=C\CCCCCCCC)C1CC1` (stereo not shown) [A21I4R21C18-1], the “Fluorescence intensity of spleen” value is 8.50E+03.

Take `CCCCC/C=C\C/C=C\CCCCCCCC(=O)N(CCC)C(C(=O)NCCN(C)CCNC(=O)C(C1CC1)N(CCC)C(=O)CCCCCCC/C=C\C/C=C\CCCCC)C1CC1` (stereo not shown) [A21I4R21C18-2]: the “Fluorescence intensity of spleen” value is recorded as 1.39E+03.

`CCCCCCCCCCCCCCCCCC(=O)N(CCC)C(C(=O)NCCN(C)CCNC(=O)C(C1CC1)N(CCC)C(=O)CCCCCCCCCCCCCCCCC)C1CC1` (stereo not shown) [A21I4R21C18]: the “Fluorescence intensity of spleen” value came out at 5.31E+03.

Consider `CCCCCCCC/C=C\CCCCCCCC(=O)N(CCO)C(C(=O)NCCN(C)CCNC(=O)C(C1CC1)N(CCO)C(=O)CCCCCCC/C=C\CCCCCCCC)C1CC1` (stereo not shown) [A21I4R22C18-1], for which the “Fluorescence intensity of spleen” value is on record as 1.76E+04.

Source of the values: patent US20250161216A1, “CATIONIC LIPID ANALOGUES, COMPOSITIONS AND USES THEREOF” (GUANGZHOU LIDE BIOMEDICINE TECHNOLOGY CO., LTD., priority 2022, published 2025).
